Assay results from patent publication US9528090B2, “Differentiation of human embryonic stem cells” (Janssen Biotech, Inc., priority 2010, dated 2016).

Key:
ES cells = settings: 25 ng/ml of IGF added to 2% FBS, MEF-CM, activin A; cited from earlier work
[1] = test system: human embryonic stem cells line H1; experiment: Definitive endoderm differentiation of H1 cells, single cell seeding (GDF8/GSK3B inhibitor, MCDB-131): FACS for CXCR4 and CD9; assay type: cell-based; settings: for % CXCR4 + CD9− / % CXCR4 − CD9+ / % CXCR4 − CD9−: day 4
Experimental: Cells of the human embryonic stem cells line H1 (p40-p52) were seeded as single cells at a density of 100000 cells/cm^2 on MATRIGEL® (1:30 dilution) (BD Biosciences; Cat #356231)-coated dishes in MEF-CM (mouse embryonic fibroblast conditioned media) supplemented with 16 ng/ml of FGF2 (Catalog#100-18B, PeproTech, NJ) and 10 μM of Y27632 (Rock inhibitor, Catalogue#Y0503, Sigma, Mo.). 72 hrs post seeding, cultures were differentiated into definitive endoderm (DE) as follows: • a. […] MCDB-131 medium supplemented with 2% BSA, sodium bicarbonate, Glutamax, and 100 ng/ml GDF-8 for an additional three days. In some of the cultures, the cells were treated with the following concentrations of IGF (Catalogue#AF100, PeproTech, NJ): 0, 1, 10, 50, or 200 ng/ml. As a control, instead of BSA, 0.2% FBS (Catalogue#SH30070.03, Hyclone, UT) was used for day 1 of differentiation, and 2% FBS was used for days 2-4. Some of the FBS treated cultures were also treated with various concentrations of IGF. At day 4, samples were collected for FACS and gene expression analysis using real-time PCR.

[2] = test system: human embryonic stem cells line H1; experiment: Definitive endoderm differentiation of H1 cells, single cell seeding (GDF8/GSK3B inhibitor): real-time PCR gene expression; assay type: cell-based
Experimental: (§1) Cells of the human embryonic stem cells line H1 (p40-p52) were seeded as single cells at a density of 100000 cells/cm^2 on MATRIGEL® (1:30 dilution) (BD Biosciences; Cat #356231)-coated dishes in MEF-CM (mouse embryonic fibroblast conditioned media) supplemented with 16 ng/ml of FGF2 (Catalog#100-18B, PeproTech, NJ) and 10 μM of Y27632 (Rock inhibitor, Catalogue#Y0503, Sigma, Mo.). 72 hrs post seeding, cultures were differentiated into definitive endoderm (DE) as follows: • a. MCDB-131 (Catalogue#10372-019, Invitrogen, CA) medium supplemented with 2% fatty acid-free BSA (Catalog#68700, Proliant, IA), 0.0025 g/ml sodium bicarbonate (Catalogue #S3187, Sigma, Mo.), 1× GlutaMax™ (Catalogue #35050-079, Invitrogen, Ca) and 100 ng/ml GDF8 (Catalogue#120-00, PeproTech, NJ) plus 2.5 μM of the GSK3B inhibitor 14-Prop-2-en-1-yl-3,5,7,14,17,23,27-heptaazatetracyclo [19.3.1.1˜2,6˜0.1˜8,12˜]heptacosa-1(25),2(27),3,5,8(26),9,11,21,23-nonaen-16-one for one day, then • b. MCDB-131 medium supplemented with 2% BSA, sodium bicarbonate, Glutamax, and 100 ng/ml GDF-8 for an additional three days.
In some of the cultures, the cells were treated with the following concentrations of IGF (Catalogue#AF100, PeproTech, NJ): 0, 1, 10, 50, or 200 ng/ml. As a control, instead of BSA, 0.2% FBS (Catalogue#SH30070.03, Hyclone, UT) was used for day 1 of differentiation, and 2% FBS was used for days 2-4. Some of the FBS treated cultures were also treated with various concentrations of IGF.
At day 4, samples were collected for FACS and gene expression analysis using real-time PCR.
Cultures treated with medium supplemented with FBS were much more sensitive to the inhibitory effect of IGF. […] These observations was further supported by immuno fluorescence (IF) staining for the DE marker SOX17 (Catalogue #AF 1924, R & D systems, MN) (FIGS. 8-9).

[3] = test system: human embryonic stem cells line H1; experiment: Definitive endoderm differentiation of H1 cells in FBS medium (GDF8/GSK3B inhibitor) with IGF or insulin: FACS and real-time PCR; assay type: cell-based; settings: in the presence of FBS, 10-100 ng/ml, day 4
Experimental: as §1, with “a. with” for “a.”, “0.2% FBS (Catalogue#SH30070.03, Hyclone, UT),” for “2% fatty acid-free BSA (Catalog#68700, Proliant, IA),”, “14-Prop-2-en-1-yl-3,5,7,14,17,23,27-heptaazatetracyclo[19.3.1.1˜2,6˜0.1˜8,12˜]heptacosa-1(25),2(27),3,5,8(26),9,11,21,23-nonaen-16-one” for “14-Prop-2-en-1-yl-3,5,7,14,17,23,27-heptaazatetracyclo [19.3.1.1˜2,6˜0.1˜8,12˜]heptacosa-1(25),2(27),3,5,8(26),9,11,21,23-nonaen-16-one”, “FBS,” for “2% BSA,”, “GDF8” for “GDF-8”
0.5% FBS was used for day 2 and 2% FBS was used for days 3-4. Besides regular FBS, heat treated FBS (Catalogue#F4135, Sigma, Mo.) and charcoal stripped treated FBS (Catalogue#F6765, Sigma, Mo.) were also tested. Some of the FBS treated cultures were also treated with various concentrations of IGF (10-100 ng/ml) or insulin (10-100 ng/ml).
At day 4, samples were collected for analysis by FACS and real-time PCR.

[4] = IGF 50-200 ng/ml, BSA treated cultures

In the case of IGF, the “decrease of the expression of SOX17” value (ES cells) is listed as “approximately 70%”, the “% CXCR4 + CD9−” value ([1]; BSA + 1 ng/ml IGF) is listed as 92% and the “% CXCR4 − CD9+” value ([1]; BSA + 1 ng/ml IGF) is listed as 0.8%. The “% CXCR4 − CD9−” value ([1]; BSA + 1 ng/ml IGF) was 3%, the “% CXCR4 + CD9−” value ([1]; BSA + 10 ng/ml IGF) was 90% and the “% CXCR4 − CD9+” value ([1]; BSA + 10 ng/ml IGF) was 1.3%. For the same substance, the “% CXCR4 − CD9−” value ([1]; BSA + 10 ng/ml IGF) was 5.3%, the “% CXCR4 + CD9−” value ([1]; BSA + 50 ng/ml IGF) was 87% and the “% CXCR4 − CD9+” value ([1]; BSA + 50 ng/ml IGF) was 6%. For the same substance, the “% CXCR4 − CD9−” value ([1]; BSA + 50 ng/ml IGF) was 3.5%, the “% CXCR4 + CD9−” value ([1]; BSA + 200 ng/ml IGF) was 79% and the “% CXCR4 − CD9+” value ([1]; BSA + 200 ng/ml IGF) was 10%. For the same substance, the “% CXCR4 − CD9−” value ([1]; BSA + 200 ng/ml IGF) was 8%, the “% CXCR4 + CD9−” value ([1]; FBS + 1 ng/ml IGF) was 89% and the “% CXCR4 − CD9+” value ([1]; FBS + 1 ng/ml IGF) was 3%. The “% CXCR4 − CD9−” value ([1]; FBS + 1 ng/ml IGF) was 3.6%, the “% CXCR4 + CD9−” value ([1]; FBS + 10 ng/ml IGF) was 87% and the “% CXCR4 − CD9+” value ([1]; FBS + 10 ng/ml IGF) was 6.4%. For the same substance, the “% CXCR4 − CD9−” value ([1]; FBS + 10 ng/ml IGF) was 3.3%, the “% CXCR4 + CD9−” value ([1]; FBS + 50 ng/ml IGF) was 78% and the “% CXCR4 − CD9+” value ([1]; FBS + 50 ng/ml IGF) was 6.8%. For the same substance, the “% CXCR4 − CD9−” value ([1]; FBS + 50 ng/ml IGF) was 13.2%, the “% CXCR4 + CD9−” value ([1]; FBS + 200 ng/ml IGF) was 70% and the “% CXCR4 − CD9+” value ([1]; FBS + 200 ng/ml IGF) was 13.4%. The “% CXCR4 − CD9−” value ([1]; FBS + 200 ng/ml IGF) was 12.9%, the “CXCR4+CD9− cells” value [1, 4] was “drop in expression” and the “CXCR4−CD9+ fraction” value [1, 4] was “increase in expression”. For the same substance, the “CXCr4+CD9− fraction” value ([1]; increasing doses of IGF, FBS treated versus BSA treated cultures) was “more significant drop”, the “expression of markers associated with definitive endoderm (FOXA2, SOX17, CER1, CXCR4)” value ([2]; 1-200 ng/ml of IGF, BSA treated cultures, versus no IGF) was “did not significantly affect” and the “expression of the embryonic marker NANOG” value ([2]; 50-200 ng/ml of IGF) was “did increase expression”. The “expression of SOX17, HNF3B and CXCR4” value ([2]; FBS supplemented cultures, increasing IGF) was “decreased with increasing concentration”, the “expression of the pluripotency marker NANOG” value [3] was “upregulated” and the “markers associated with definitive endoderm such as SOX17 and CCXR4” value [3] was “dose dependently down regulated”.
